Reference: patent publication US20230107216A1, “PANTETHEINE DERIVATIVES AND USES THEREOF” (Comet Therapeutics, Inc., priority 2018, published 2023)

Tests used:
[1] = tested on: Pkd1−/− mouse inner medullary collecting duct cells (mIMRFNPKD 5E4); assay: mPKD 3D cyst swelling assay (forskolin-induced); type: cell-based; conditions: after 72 hours of forskolin exposure
Protocol: Cell model and control compounds. mIMCD3 WT cells were obtained via ATCC and modified to create the mIMRFNPKD 5E4 cell line, which has a CRISPR-Cas mediated knockout for Pkd1 as described SLAS Discov. 2017 September; 22(8):974-984. doi: 10.1177/2472555217716056. Cells were cultured in DMEM/F12 (Sigma)+10% FBS (Sigma)+0.5% Pen/Strep (Gibco)+1% GluMax (Gibco). Control compounds used were forskolin (Calbiochem, 344282), Rapamycin (Selleckchem, S1039) and Staurosporin (Selleckchem, S1421).
The 3D mouse cyst swelling assay was performed with Pkd1^−/− mouse inner medullary collecting duct cells (mIMRFNPKD 5E4). The cyst swelling protocol that was used was described previously (SLAS Discov. 2017 September; 22(8):974-984. doi: 10.1177/2472555217716056), with further optimization.
3D culture and compound exposure. mIMRFNPKD 5E4 cells were mixed with Cyst-Gel (OcellO BV). 15 μL of cell-gel mix was pipetted to 384-well plates (Greiner μClear, Greiner Bio-One B.V.) using a CyBio Felix 96/60 robotic liquid dispenser (Analyik Jena AG). Gel-cell mix was plated at a final cell density of 2250 cells per well. After gel polymerization at 37° C. for 30 minutes, 33 μL culture medium was added to each well. Cells were grown in the gel for 96 hours, after which the cells were co-exposed with forskolin (Calbiochem, 344282) and one the following molecules: reference compound Rapamycin (SelleckChem, S1039), toxic control compound Staurosporin (SelleckChem, S1421) or test compounds.
Sample processing. After 72 hours, cultures were fixed with 4% Formaldehyde (Sigma Aldrich) and simultaneously permeabilized with 0.2% Triton-X100 (Sigma Aldrich) and stained with 0.25 μM rhodamine-phalloidin (Sigma Aldrich) and 0.1% Hoechst 33258 (Sigma Aldrich) in 1×PBS (Sigma Aldrich) for 2 days at 4° C., protected from light. After fixation and staining, plates were washed with 1×PBS, sealed with a Greiner SilverSeal (Greiner Bio-One B.V.) and stored at 4° C. prior to imaging.
Imaging and image analysis. Imaging was done using Molecular Devices ImageXpress Micro XLS (Molecular Devices) with a 4× NIKON objective. For each well around 35 images in the Z-direction were made for both channels, capturing the whole z-plane in each image. Image analysis was performed using Ominer™ software (OcellO BV). Cysts were segmented using detection of Hoechst-stained nuclei and Rhodamine-phalloidin-stained cellular f-actin. Cyst area was determined by calculating for the area in px of each object in every in-focus plain. This was averaged per well. (N represented is number of wells) Fraction of apoptotic nuclei as an indicator of toxicity was calculated as the amount of nuclei without actin signal relative to the total amount of nuclei, both as count-measurements. Statistics was done using KNIME Analytics Platform (Konstanz, Germany, http://www.knime.org/), graphs were prepared in GraphPad Prism 6 (GraphPad Software, La Jolla, Calif.).

[2] = tested on: oligodendrocyte precursor cells (OPC) in mixed brain cultures; assay: Oligodendrocyte precursor cells (OPC) proliferation, O4+ cell count; type: cell-based, mouse; conditions: 10 uM
Protocol: The effect of compounds of the present disclosure was determined on oligodendrocyte precursor cells proliferation (OPC).
Cell culture. Brains of wild type mice (whole brain from 1 or 2 mouse pups) less than postnatal day (P) 2 were isolated and cultured. Briefly, following removal of the meninges, cells were dissociated with 0.25% EDTA/CMF-DMEM and 1% Trypsin (1:1), plated at a density of 75,000 cells/on 0.1 mg/ml poly-L-lysine coated borosilicate glass coverslips in 24-well plates, grown in OPC differentiation media (Oligo media) consisting of DMEM/F12 (Invitrogen 21331-020) supplemented with 1% FBS, 1% N2 Neural Supplement (Invitrogen 17502-048) and PDGF receptor alpha growth factor (Invitrogen 17502-048). Cells were fed every other day and allowed to grow for 7 days in vitro (DIV).
OPCs treatment with compounds of the present disclosure. Cells were treated with compounds of the present disclosure (50-10 μM) or vehicle (0.1% DMSO) starting at 7 DIV. Media was replaced daily with freshly made working solutions of compounds or vehicle for either 48 h (9 DIV total) or 96 h (11 DIV). The 48 h group consisted of 1 coverslip per condition. The 96 h group was treated in duplicate.
Fresh aliquots of compounds of the present disclosure were made up on the day of treatment, briefly, a 50 mM stock was thawed and used to make up fresh 50 μM working solution in Oligo Media. The fresh 50 μM working solution was diluted further in Oligo Media to make 10 μM working solution. Vehicle controls was made up in fresh Oligo Media using the appropriate amount of vehicle (DMSO). Coverslips were stored in clean 24-well plates at 4° C. until fixed-staining. Cells were imaged using Leica DM5500 fluorescent microscope with LAS-X software.
Exposure settings were maintained at the same rate across compounds of the same time-point. Cells were imaged at 20× and 40× magnifications. At least 5 images were taken per condition. Most conditions had at least 5 images that were counted. 20× images were utilized for counting DAPI (cell nuclei) and O4+ cells.
Total DAPI per image for all images was counted using ImageJ as here indicated. • Image was converted to 8 bit • Blue Channel (DAPI) was automatically thresholded by default ImageJ settings • Image noise was reduced by ImageJ>Process>Noise>Despeckle • ImageJ>Process>Binary>Watershed was used to automatically separate merged cell nuclei • ImageJ>Analyze>Analyze Particles was used to obtain final count of DAPI per image • Total number of DAPI-positive cells
Total number of O4+ cells per 20× image was manually counted using Adobe Photoshop: • All cell bodies of OPCs with underlying DAPI stain were counted as an O4+ cell • Total number of O4+ cells were recorded in Excel Spreadsheet O4+ cells in mixed brain cultures of wild type mice <P2 treated with compounds of the present disclosure or vehicle were quantified per condition (time point and concentration). The following formula was used to normalize the total cell counts within a compound as well as across compounds treated for the same duration (48h vs. 96h):
(number of O4+cell counts in Compound X/Average DAPI count for Compound X)*Total Average DAPI count across compounds of same Time Point
Values were plotted as Scatter Interval plots in Origin. Each data point represents a single image from which O4+ cell values were obtained. Data are presented as mean±S.E.
Images are at 20× magnification and represent 1-2 coverslips per group. Scale bar, 50 μm.

Compound | % Increase OPC proliferation [2] | further results
COC(=O)CC(SCCNC(=O)CCNC(=O)[C@H](O)C(C)(C)COC(C)=O)C(=O)OC (stereo partly drawn) [Compound 149, 1,4-dimethyl 2-[(2-[3-[(2R)-4-(acetyloxy)-2-hydroxy-3,3-dimethylbutanamido]propanamido]ethyl)sulfanyl]butanedioate] |  | % prevention of forskolin-induced cyst swelling ([1]; 50 uM): ≥10%
C[C@@H](O)CC(=O)SCCNC(=O)CCNC(=O)[C@H](O)C(C)(C)CO [Compound 38, S-2-{3-[(R)-2,4-dihydroxy-3,3-dimethylbutyrylamino]propionylamino} ethyl (R)-3-hydroxybutanethioate] | ≥25% | 
CC(C)(CO)[C@@H](O)C(=O)NCCC(=O)NCCSC(=O)CCC(=O)O [Compound 1, (R)-4-((2-(3-(2,4-dihydroxy-3,3-dimethylbutanamido)propanamido)ethyl)thio)-4-oxobutanoic acid] | ≥25% | 
CC(C)(CO)[C@@H](O)C(=O)NCCC(=O)NCCSC(=O)CCCO [Compound 1304, (2R)-2,4-dihydroxy-N-[2-([2-[(4-hydroxybutanoyl)sulfanyl]ethyl]carbamoyl)ethyl]-3,3-dimethylbutanamide] |  | % prevention of forskolin-induced cyst swelling ([1]; 10 uM): ≥10%
CC(C)(CO)[C@@H](O)C(=O)NCCC(=O)NCCSC(=O)CCCN [Compound 370, (2R)—N-[2-([2-[(4-aminobutanoyl)sulfanyl]ethyl]carbamoyl)ethyl]-2,4-dihydroxy-3,3-dimethylbutanamide] | ≥10% | 
COC(=O)CC(C(C)=O)C(=O)SCCNC(=O)CCNC(=O)[C@H](O)C(C)(C)CO (stereo partly drawn) [Compound 410] | ≥25% | 
CC(=O)SCCNC(=O)CCNC(=O)[C@H](O)C(C)(C)COC(=O)[C@@H](N)Cc1ccc(O)c(O)c1 [Compound 498, (3R)-3-[(2-[[2-(acetylsulfanyl)ethyl]carbamoyl]ethyl)carbamoyl]-3-hydroxy-2,2-dimethylpropyl (2S)-2-amino-3-(3,4-dihydroxyphenyl)propanoate] | ≥25% | 
C[C@H](CC(=O)SCCNC(=O)CCNC(=O)[C@H](O)C(C)(C)CO)OC(=O)CCC(=O)O [Compound 1243, 4-{[(2R)-4-[(2-{3-[(2R)-2,4-dihydroxy-3,3-dimethylbutanamido]propanamido}ethyl)sulfanyl]-4-oxobutan-2-yl]oxy}-4-oxobutanoic acid] |  | % prevention of forskolin-induced cyst swelling ([1]; 50 uM): ≥10%
CC(C)(CO)[C@@H](O)C(=O)NCCC(=O)NCCSC(=O)C1CCC(=O)N1 (stereo partly drawn) [Compound 1227, S-2-{3-[(R)-2,4-dihydroxy-3,3-dimethylbutyrylamino]propionylamino}ethyl 5-oxo-2-pyrrolidinecarbothioate] |  | % prevention of forskolin-induced cyst swelling ([1]; 10 uM): ≥10%
